Values of other authors, collected in patent publication US20240190825A1, “PROCESS FOR PREPARATION OF CABOZANTINIB” (BIOCON LIMITED, priority 2021, published 2024).
Blank lines part the entries; values can stand above or below the molecule they belong to.

- solubility in aqueous media (aqueous media): practically insoluble
SMILES: COc1cc2nccc(Oc3ccc(NC(=O)C4(C(=O)Nc5ccc(F)cc5)CC4)cc3)c2cc1OC.O=C(O)C[C@H](O)C(=O)O [Cabozantinib (S)-malate salt, N-(4-(6,7-dimethoxyquinolin-4-yloxy)phenyl)-N′-(4fluorophenyl)cyclopropane-1,1-dicarboxamide, (2S)-hydroxybutanedioate]

- water solubility (water): poorly water-soluble
SMILES: COc1cc2nccc(Oc3ccc(NC(=O)C4(C(=O)Nc5ccc(F)cc5)CC4)cc3)c2cc1OC [Cabozantinib, N-(4-(6,7-dimethoxyquinolin-4-yloxy)phenyl)-N′-(4Fluorophenyl) cyclopropane-1,1-dicarboxamide]

- solubility of crystal form (as disclosed in WO2020057622 A1 on WO2015177758 A1 forms): low
SMILES: COc1cc2nccc(Oc3ccc(NC(=O)C4(C(=O)Nc5ccc(F)cc5)CC4)cc3)c2cc1OC.O=C(O)C[C@H](O)C(=O)O [crystalline form M4]
